Data on seven compounds can be found in patent US20230277549A1, “NOTCH SIGNALING INHIBITORS FOR TREATING OBESITY AND METABOLIC DISORDERS” (Purdue Research Foundation, priority 2020, published 2023).

For series [1], the system named is differentiated 3T3-L1 cells. Kind of series: mRNA expression of adipogenic, mitochondrial and browning marker genes by real-time qPCR. The class given is cell-based. To be noted: for increase of mRNA expression of Tmem26: 0.5, 1 and 10 μM, highest dose significant versus control. The protocol:
(§1) Cell culture and drug treatment. 3T3-L1 preadipocytes were cultured in Dulbecco's modified Eagle medium (DMEM) supplemented with 10% fetal bovine serum (FBS) and 1% antibiotics (penicillin and streptomycin) at 37° C., 5% CO2, and 95% relative humidity. The medium was routinely changed every two days and cells were separated by trypsin before reaching confluency. Beige adipocyte differentiation was induced by treating confluent preadipocytes with the adipogenic induction medium containing DMEM, 10% FBS, 0.5 mM isobutylmethylxanthine, 1 μM dexamethasone, 1.75 μM insulin, and 1 μM rosiglitazone. Three days after induction, medium was switched to the differentiation medium containing DMEM, 10% FBS, 850 nM insulin, and 10 nM triiodothyronine until adipocytes matured. For the drug treatment, a series of GSIs were added to the cells in culture medium at the same final drug concentrations of 0.5, 1, and 10 μM, respectively, and cells were induced for differentiation.
(§2) RNA extraction, cDNA synthesis, and real-time qPCR. Total RNA was extracted from cells using TRIzol (Thermo Fisher Scientific, Waltham, Mass., USA) in accordance with the manufacturer's protocol. RNA was treated with RNase-free DNase I to remove contaminating genomic DNA and the purity as well as concentration of extracted RNA were determined by a spectrophotometer NanoDrop 2000c (Thermo Fisher Scientific, Waltham, Mass., USA). Subsequently, 2 μg of RNA was reverse transcribed to cDNA using random hexamer primers with M-MLV reverse transcriptase (Invitrogen, Carlsbad, Calif., USA). Real-time qPCR was performed in the Roche Light Cycler 480 PCR system (Roche, Basel, Switzerland) with SYBR Green master mix.
(§3) The 2^−ΔΔCT method was used to analyze the relative changes of gene expression after normalization to the expression of β-Actin.
Background: Real-time PCR tracks product formation cycle by cycle.

In series [2] the test system is Notch (Hes1) in human tumor-derived cells. To be noted: cited from earlier work.
The subject of series [3] is UCP1, PPARγ, and C/EBPα in differentiated 3T3-L1 cells. Kind of series: Western blot of UCP1, PPARγ and C/EBPα protein. In kind it is cell-based. To be noted: for protein expression of UCP1 / decrease of the upregulated UCP1 protein expression: western blot; for decrease of the upregulated UCP1 protein expression: increasing the concentration from 1 to 10 μM. The procedure: as §1
Protein extraction and western blotting. Total protein was extracted from cells using RIPA buffer containing 25 mM Tris-HCl (pH 8.0), 150 mM NaCl, 1 mM EDTA, 0.5% NP-40, 0.5% sodium deoxycholate and 0.1% SDS. Protein concentrations were determined by Pierce BCA Protein Assay Reagent (Pierce Biotechnology, Waltham, Mass., USA). Proteins were separated by SDS-PAGE and transferred to a polyvinylidene fluoride membrane (Millipore, Burlington, Mass., USA). The membrane was then blocked with 5% fat-free milk for 1 h at room temperature and incubated with primary antibodies in 5% milk overnight at 4° C. as well as secondary antibodies for 1 h at room temperature. Primary antibodies, including UCP1 (1:1000 dilution), C/EBPα (1:500 dilution), PPARγ (1:500 dilution), and β-Actin (1:5000 dilution), were used. HRP-conjugated secondary antibodies, including anti-rabbit and anti-mouse IgG, were also used at a dilution of 1:10,000. A luminol reagent for enhanced chemiluminescence detection of western blots (Santa Cruz Biotechnology, Dallas, Tex., USA) was employed and signals were detected with a FluorChem R imaging system (ProteinSimple, San Jose, Calif., USA).
The protein expression of adipogenic markers, such as PPARγ and C/EBPα, was also evaluated.
On the technique in general: Immunoblotting shows a protein as a band on a membrane.

The next series relates to 3T3-L1 preadipocytes. As to the kind of experiment: Cell viability, MTS assay. To be noted: 0.5, 1 and 10 μM, 12 h. The procedure: Assessment of cell viability. In vitro cell viability after incubation with various GSIs at three concentrations was determined using an MTS assay, which is based on the mitochondrial conversion of a tetrazolium salt. 3T3-L1 preadipocytes were seeded onto 96-well plates at a density of 1×10^4 cells per well and cultured in 5% CO2 at 37° C. for 48 h. GSIs were then added to the cells in culture medium at the same final drug concentrations of 0.5, 1, and 10 μM, respectively, and cells were further incubated at 37° C. for 12 h. Subsequently, 20 μL of CellTiter 96® AQueous one solution reagent was added to each well in 100 μL of culture medium and incubated at 37° C. in a humidified, 5% CO2 atmosphere for 2 h. The absorbance was measured using a Tecan Spark™ 10M microplate reader (Tecan, Mannedorf, Switzerland) at a wavelength of 490 nm with background subtraction at 680 nm. Cells incubated with 0.1% Triton X-100 and dimethyl sulfoxide (DMSO) in culture medium served as positive and negative controls, respectively.
Effects of GSIs on cell viability. To investigate effects of GSIs on cell viability, 3T3-L1 preadipocytes were treated with GSIs at three gradient concentrations (0.5, 1, and 10 μM) for 12 h.

Series [4] concerns Notch signaling (target gene Hes1). As to the kind of experiment: Notch inhibition: Hes1 mRNA by real-time qPCR in 3T3-L1 preadipocytes. The class given is cell-based. To be noted: for dose dependence of the inhibitory effect on Hes1 expression: 0.5, 1 and 10 μM; for mRNA expression of Hes1: 3T3-L1 preadipocytes, 1 μM, 12 h, real-time qPCR. The procedure:
as §1, §2, §3
To determine the impact of GSIs on inhibition of Notch signaling, 3T3-L1 preadipocytes were treated with a series of GSIs (see Table 1) at a concentration of 1 μM and the change in mRNA expression of Hes1, a Notch downstream transcriptional target gene, was evaluated using real-time qPCR.
To further examine the relationship between drug concentration and inhibitory effect of GSIs, cells were treated with the four most promising inhibitors (i.e., RO4929097, PF-03084014, LY3039478, and BMS-906024) at three gradient concentrations (0.5, 1, and 10 μM).
Effect of RO4929097-PLGA NPs on the Notch signaling target gene. 3T3-L1 preadipocytes were treated with DMSO, PLGA NPs (0.1 mg/mL), DBZ (10 μM), RO4929097 (1 μM) or RO4929097-PLGA NPs (0.1 mg/ml) for 12 h at 37° C. in a 5% CO2 incubator. The Notch target Hes1 mRNA expression was analyzed by qRT-PCR (FIG. 8). Each bar is the mean±SEM of 4 to 5 replicates in each group and the data were analyzed by one-way ANOVA followed by Tukey's post hoc comparison test. Asterisks refer to statistical difference between the indicated treatment groups (*p<0.05, **p<0.01, and ***p<0.001).

Series [5] has as its system UCP1 in differentiated 3T3-L1 cells. Kind of series: UCP1 immunofluorescence staining. The class given is cell-based. To be noted: 1 μM.
Description: Immunofluorescence staining. After washing with phosphate-buffered saline (PBS), cells were fixed with 4% PFA, quenched with glycine (100 mM glycine and 0.1% sodium azide in PBS), and blocked with PBS containing 2% BSA, 5% goat serum, and 0.2% Triton X-100 for 1 h at room temperature. Subsequently, cells were incubated with the UCP1 antibody diluted at 1:500 in the same blocking buffer overnight at 4° C. and the Alexa Fluor® 488 conjugated goat anti-rabbit IgG (1:1000 dilution) for 1 h at room temperature. Nuclei were counterstained with 4′,6-diamidino-2-phenylindole (DAPI, 1 μg/mL), which was premixed with the secondary antibody.
The mark [6] stands for this setting: all the concentrations (0.5, 1, 10 μM).

Molecules are shown by their SMILES. “Also recorded” adds a separate entry of the source.

`CC(C)(C(=O)NCC(F)(F)C(F)(F)F)C(=O)N[C@@H]1C(=O)Nc2ccccc2-c2ccccc21` [RO4929097]: the “mRNA expression of Cox5B” value in series [1] (setting [6]) is on record as “increased”. Besides, in series [2], the “concentration above which no further reduction in mRNA level of Hes1” value was > 1 µM, the “concentration above which no further reduction in protein level of Hes1” value is listed as “higher than 0.5 μM” and the “concentration at which dose-dependent inhibition of Notch begins” value was ≥ 0.1 µM. Also, the “protein expression of UCP1” value in series [3] (1 μM) was “significantly upregulated”. Further, in series [3] (setting [6]), the “protein expression of C/EBPα” value is “significantly upregulated”. In series [3], the “decrease of the upregulated UCP1 protein expression” value is “around 50%”. Moreover, in the series on 3T3-L1 preadipocytes, the “cell viability / cytotoxicity” value is “decreased with increasing the drug concentration”. Further, in series [4], the “dose dependence of the inhibitory effect on Hes1 expression” value (“dose dependence of the inhibitory effect” for short) is on record as “did not result in a dose-dependent depression” and the “mRNA expression of Hes1” value is listed as “significantly inhibited”.

Turning to `CN1C(=O)[C@@H](NC(=O)[C@H](CCC(F)(F)F)[C@H](CCC(F)(F)F)C(N)=O)N=C(c2ccccc2)c2ccccc21` [BMS-906024], the “increase of mRNA expression of Tmem26” value in series [1] is recorded as “in a dose-dependent manner”. In series [3] (1 μM), the “protein expression of C/EBPα” value is given as “significantly upregulated” and the “protein expression of UCP1” value is on record as “minimal impact”. Besides, the “UCP1 positive adipocytes (UCP1 expression)” value in series [5] is reported as “minimal efficiency”. In series [4], the “dose dependence of the inhibitory effect” value is given as “more significant with increasing the drug concentration” and the “mRNA expression of Hes1” value was “significantly inhibited”.

With `C[C@H](NC(=O)CCC(F)(F)F)C(=O)N[C@@H]1C(=O)N(CCO)c2ncccc2-c2ccccc21` [LY3039478], in series [1] (10 μM), the “mRNA expression of Cox5B” value is “Significant upregulation” and the “mRNA expression of Ppargc1α” value is “significant changes”. Also, the “increase of mRNA expression of Tmem26” value in series [1] was “in a dose-dependent manner”. Further, the “protein expression of UCP1” value in series [3] (1 μM) is listed as “significant upregulation”. Further, the “protein expression of C/EBPα” value in series [3] (setting [6]) is recorded as “significantly upregulated”. For the same compound, the “protein expression of UCP1” value in series [3] (high concentration of 10 μM) is “did not significantly change”. In the series with 3T3-L1 preadipocytes, the “cell viability / cytotoxicity” value is recorded as “did not result in any significant cytotoxicity”. Also, in series [4], the “dose dependence of the inhibitory effect” value is reported as “more significant with increasing the drug concentration” and the “mRNA expression of Hes1” value is “significantly inhibited”.

Turning to `CCC[C@H](N[C@H]1CCc2cc(F)cc(F)c2C1)C(=O)Nc1cn(C(C)(C)CNCC(C)(C)C)cn1` [PF-03084014], the “mRNA expression of Cox5B” value in series [1] (1 μM) is recorded as “Significant upregulation”. For the same compound, the “mRNA expression of Ppargc1α” value in series [1] (10 μM) was “significant changes”. Moreover, the “increase of mRNA expression of Tmem26” value in series [1] is recorded as “in a dose-dependent manner”. The “protein expression of UCP1” value in series [3] (1 μM) is “significantly upregulated”. Besides, the “decrease of the upregulated UCP1 protein expression” value in series [3] was “around 50%”. For the same compound, the “cell viability / cytotoxicity” value with 3T3-L1 preadipocytes is reported as “decreased with increasing the drug concentration”. Further, in series [4], the “dose dependence of the inhibitory effect” value is reported as “more significant with increasing the drug concentration” and the “mRNA expression of Hes1” value is recorded as “significantly inhibited”.

In the case of `CC(C)[C@H](O)C(=O)N[C@@H](C)C(=O)N[C@@H]1C(=O)N(C)CCc2ccccc21` [LY450139], the “mRNA expression of Hes1” value in series [4] is “did not significantly decrease”.

With `NC(=O)[C@@H](CCC(F)(F)F)N(Cc1ccc(-c2ncon2)cc1F)S(=O)(=O)c1ccc(Cl)cc1` [BMS-708163], the “mRNA expression of Hes1” value in series [4] is given as “did not significantly decrease; also recorded: relatively moderate inhibitory effect”.

`O=C(O)CC[C@H]1CC[C@@](c2cc(F)ccc2F)(S(=O)(=O)c2ccc(Cl)cc2)CC1` [MK-0752]: the “mRNA expression of Hes1” value in series [4] is on record as “did not significantly decrease; also recorded: relatively moderate inhibitory effect”.
